Source: paper PMC11436757, “BRCA2 stabilises RAD51 and DMC1 nucleoprotein filaments through a conserved interaction mode” (Nature Communications, 2024)
Values belong to the molecule of their own block, whether it stands above or below them.

Columns and labels:
DMC1 ΔN V179E = test: Amylose pull-down of His-DMC1 ΔN V179E with MBP-BRCA2 fusions; assay type: binding, human; details: lysates mixed; MBP-BRCA2 fusion; 20 mM Tris pH 8.0, 500 mM KCl, 2 mM DTT
Description: (§1) For affinity experiments involving DMC1 ΔN V179E and F85E, MBP-fusions of BRCA2 fragments (Ex14, amino-acids 2387-2420, Ex14-Tr, amino acids 2401-2414, BRC4, amino acids 1519-1551) were cloned into pMAT11 vectors and DMC1 ΔN mutants (V179E or F85E) were cloned into pHAT4 vectors. Lysates of bacterial cultures expressing His6-DMC1 mutants or MBP-BRCA2 constructs were mixed, and complexes were purified through amylose affinity chromatography in 20 mM Tris pH 8.0, 500 mM KCl, 2 mM DTT and eluted using 30 mM D-maltose.

[1] = test system: RAD51 L180E-ssDNA filaments; test: EMSA, BRC4-mediated disruption of RAD51 L180E-ssDNA filaments (random sequence ssDNA); assay type: biochemical; details: 100-nt random ssDNA
Description: (§2) To form nucleoprotein filaments, DMC1 and RAD51 was incubated with fluorescent 100-base ssDNA (5’-FAM- […]-3’) at the concentrations indicated in the figures for 30 minutes at 4 °C in reaction buffer. For DMC1, reaction buffer is 25 mM TEA (triethanolamine) pH 7.5, 1 mM ATP, 2 mM MgCl2, 0.1 mg/ml BSA, 2 mM DTT, 200 mM KCl. For RAD51, reaction buffer is 50 mM TEA (triethanolamine), 2 mM ATP, 0.5 mM MgCl2, 2 mM DTT. For assays requiring incomplete nucleoprotein filament assembly, the reaction buffer consisted of 50 mM TAE (tris, acetate, EDTA) pH 7.5, 2 mM ATP, 2 mM MgCl2, 2 mM DTT. In nucleoprotein formation stimulation assays or supershift experiments, BRCA2Ex14 or BRCA2Ex14-AAA were added for a further 30 min at 4 °C. […] Glycerol was added at a final concentration of 3%, and samples were analysed by electrophoresis on a 1% (w/v) (for DMC1) or 0.66% (w/v) (for RAD51) agarose gel in 0.5x TAE pH 8.0 at 20–40 V for ~4 h at 4 °C. DNA was detected by FAM using a Typhoon^TM FLA 9500 (GE Healthcare), with 473 nm laser at excitation wavelength 490 nm and emission wavelength 520 nm, using the LPB filter and a PMT voltage of 500 V. To analyse RAD51 nucleoprotein filaments assembled upon 100-base poly(dT) ssDNA, gels were stained post-run using SYBR^TM Gold Nucleic Acid Gel Stain (Invitrogen) and detected using a Typhoon^TM FLA 9500 (GE Healthcare).

DMC1-ssDNA filaments = test: EMSA, BRC4-mediated disruption of DMC1-ssDNA filaments; assay type: biochemical, human; details: TEA pH 7.5 + KCl; stoichiometric excess of BRC4 (5-fold, 10-fold elsewhere in the source)
Description: Finally, we tested whether binding of BRCA2 Ex14 protects DMC1-ssDNA nucleoprotein filaments from BRC4-mediated disruption (Fig. 3c). […] Further, whilst the core PhePP interaction site is sufficient to stimulate DMC1-ssDNA nucleoprotein filament formation, surrounding amino-acids that are present within Ex14 (but not Ex14-Tr) are necessary to super-shift filaments and confer protection from BRC4-mediated disruption.
as §2, with “KCl.” for “KCl. For RAD51, reaction buffer is 50 mM TEA (triethanolamine), 2 mM ATP, 0.5 mM MgCl2, 2 mM DTT. For assays requiring incomplete nucleoprotein filament assembly, the reaction buffer consisted of 50 mM TAE (tris, acetate, EDTA) pH 7.5, 2 mM ATP, 2 mM MgCl2, 2 mM DTT. In nucleoprotein formation stimulation assays or supershift experiments, BRCA2Ex14 or BRCA2Ex14-AAA were added for a further 30 min at 4 °C.”

DMC1 ΔN F85E = test: Amylose pull-down of His-DMC1 ΔN F85E (monomeric) with MBP-BRCA2 fusions; assay type: binding, human; details: lysates mixed; MBP-BRCA2 fusion; 20 mM Tris pH 8.0, 500 mM KCl, 2 mM DTT
Description: as §1

RAD51-ssDNA filaments [2] = test: EMSA, BRC4-mediated disruption of RAD51-ssDNA filaments (random sequence ssDNA); assay type: biochemical; details: 100-nt random ssDNA; equimolar BRC4
Description: as §2

RAD51-ssDNA filaments [3] = test: EMSA, protection of RAD51-ssDNA filaments from BRC4-mediated disruption (random sequence ssDNA); assay type: biochemical; details: 100-nt random ssDNA; 10-fold excess of Ex27
Description: as §2

DMC1 ΔN loop mutant = target: T1, DMC1 ΔN loop mutant (Homo sapiens, UniProt Q14565, A148D/A183D/D180S/D182S/G147I/G149R/G153E/H181G/N178G/P152G/V179L/Y151G); test: Amylose pull-down of DMC1 ΔN loop mutant with MBP-BRCA2 fusions; assay type: binding; details: recombinant co-expression with MBP-BRCA2 fusion
T1 construct: DMC1 ΔN (83-340) were cloned into pHAT4; made in house
T1 sequence (Q14565 83-340 G147I/A148D/G149R/Y151G/P152G/G153E/N178G/V179L/D180S/H181G/D182S/A183D limits assumed): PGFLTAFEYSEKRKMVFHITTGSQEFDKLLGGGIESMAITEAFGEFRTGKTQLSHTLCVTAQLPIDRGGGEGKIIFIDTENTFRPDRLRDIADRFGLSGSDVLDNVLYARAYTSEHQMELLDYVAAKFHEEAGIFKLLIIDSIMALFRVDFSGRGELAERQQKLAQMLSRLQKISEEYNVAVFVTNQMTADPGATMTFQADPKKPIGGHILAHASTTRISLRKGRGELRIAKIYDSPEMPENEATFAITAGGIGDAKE
Source text: (§3) For affinity pulldown experiments, MBP-fusions of BRCA2 fragments (Ex14, amino-acids 2387-2420, Ex14-Tr, amino acids 2401-2414, Ex27, amino acids 3270-3315, BRC4, amino acids 1519-1551) were cloned into pMAT11 vectors[54] and co-expressed with DMC1 ΔN, DMC1 ΔN loop mutant (in which DMC1 amino acids 147-GAGGYPG-153 and 178-NVDHDA-183 were replaced by the cognate sequences of RAD51 148-IDRGGGE-154 and 179-GLSGSD-184), RAD51 ΔN, RAD51 ΔN loop mutant (the reverse switch of DMC1 ΔN loop mutant), and RAD51. MBP-fusions and complexes were purified through amylose affinity chromatography.

DMC1 ΔN = target: T2, DMC1 ΔN (Homo sapiens, UniProt Q14565); test: Amylose pull-down of DMC1 ΔN with MBP-BRCA2 fusions; assay type: binding; details: recombinant co-expression with MBP-BRCA2 fusion
T2 construct: DMC1 ΔN (83-340) were cloned into pHAT4; His6 (TEV-cleavable) (N, cleaved yes); made in house; host or cells: E. coli BL21 (DE3)
T2 sequence (Q14565 83-340): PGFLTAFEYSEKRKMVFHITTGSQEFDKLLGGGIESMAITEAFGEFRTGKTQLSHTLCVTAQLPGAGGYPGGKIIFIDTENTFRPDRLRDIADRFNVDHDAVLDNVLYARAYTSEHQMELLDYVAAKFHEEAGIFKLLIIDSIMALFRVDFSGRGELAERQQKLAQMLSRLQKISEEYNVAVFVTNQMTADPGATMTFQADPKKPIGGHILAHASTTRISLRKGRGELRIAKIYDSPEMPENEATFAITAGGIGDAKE
Source text: as §3

DMC1;BRCA2 Ex14 = target: T3, DMC1;BRCA2 Ex14 (Homo sapiens;Homo sapiens, UniProt Q14565;P51587 1-340;2387-2420, |); test: EMSA, BRC4 protection; TEA + KCl; 110 µM Ex14, 10-fold excess BRC4, protected; DMC1: 25 mM TEA (triethanolamine) pH 7.5, 200 mM KCl, 1 mM ATP, 2 mM MgCl2, 0.1 mg/ml BSA, 2 mM DTT, or 50 mM TAE pH 7.5, 2 mM ATP, 2 mM MgCl2, 2 mM DTT; RAD51: 50 mM TEA, 2 mM ATP, 0.5 mM MgCl2, 2 mM DTT; all 4 C, agarose gel in 0.5x TAE; details: protein: recombinant;recombinant; tags: His6 removed by TEV;His6-MBP removed by TEV; label: 5'-FAM; single strand
T3 sequence 1: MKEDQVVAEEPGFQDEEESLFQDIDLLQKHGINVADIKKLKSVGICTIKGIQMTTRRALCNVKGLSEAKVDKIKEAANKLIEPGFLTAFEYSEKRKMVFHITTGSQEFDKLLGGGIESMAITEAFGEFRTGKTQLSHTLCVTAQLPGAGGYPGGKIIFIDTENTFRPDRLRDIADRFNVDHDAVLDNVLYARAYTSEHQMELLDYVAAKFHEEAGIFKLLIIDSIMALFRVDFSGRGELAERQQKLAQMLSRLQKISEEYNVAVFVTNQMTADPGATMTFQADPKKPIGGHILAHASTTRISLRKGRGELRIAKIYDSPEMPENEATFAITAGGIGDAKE
T3 sequence 2: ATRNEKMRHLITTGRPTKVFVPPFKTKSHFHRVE

DMC1;BRCA2 Ex14-Tr = target: T4, DMC1;BRCA2 Ex14-Tr (Homo sapiens;Homo sapiens, UniProt Q14565;P51587 1-340;, |); test: EMSA; TAE + Ex14-Tr; mostly stimulated filament formation; DMC1: 25 mM TEA (triethanolamine) pH 7.5, 200 mM KCl, 1 mM ATP, 2 mM MgCl2, 0.1 mg/ml BSA, 2 mM DTT, or 50 mM TAE pH 7.5, 2 mM ATP, 2 mM MgCl2, 2 mM DTT; RAD51: 50 mM TEA, 2 mM ATP, 0.5 mM MgCl2, 2 mM DTT; all 4 C, agarose gel in 0.5x TAE; details: tags: His6 removed by TEV;; label: 5'-FAM; single strand
T4 sequence 1: T3 sequence 1
T4 sequence 2: RPTKVFVPPFKTKS

DMC1 = target: T5, DMC1 (Homo sapiens, UniProt Q14565 1-340); test: EMSA; TEA + 200 mM KCl, 1 mM ATP, 2 mM Mg2+; largely complete at 3 nt per protomer (11 µM DMC1); DMC1: 25 mM TEA (triethanolamine) pH 7.5, 200 mM KCl, 1 mM ATP, 2 mM MgCl2, 0.1 mg/ml BSA, 2 mM DTT, or 50 mM TAE pH 7.5, 2 mM ATP, 2 mM MgCl2, 2 mM DTT; RAD51: 50 mM TEA, 2 mM ATP, 0.5 mM MgCl2, 2 mM DTT; all 4 C, agarose gel in 0.5x TAE; details: protein: recombinant; tags: His6 removed by TEV; chain copies: 8; label: 5'-FAM; single strand
T5 sequence: T3 sequence 1

RAD51;BRCA2 Ex27 = RAD51;BRCA2 Ex27 (Homo sapiens?;Homo sapiens?, UniProt Q06609;P51587 1-339;3270-3315, |); test: EMSA, BRC4 protection; 10-fold excess Ex27 + BRC4; protected, less complete than on poly(dT); DMC1: 25 mM TEA (triethanolamine) pH 7.5, 200 mM KCl, 1 mM ATP, 2 mM MgCl2, 0.1 mg/ml BSA, 2 mM DTT, or 50 mM TAE pH 7.5, 2 mM ATP, 2 mM MgCl2, 2 mM DTT; RAD51: 50 mM TEA, 2 mM ATP, 0.5 mM MgCl2, 2 mM DTT; all 4 C, agarose gel in 0.5x TAE; details: tags: ;; label: 5'-FAM; single strand

binding in pull-down (DMC1 ΔN V179E): retained binding
binding in pull-down (DMC1 ΔN F85E): retained binding
binding in pull-down (DMC1 ΔN loop mutant): retained its interaction
binding in pull-down (DMC1 ΔN): bind
Molecule: BRC4: BRCA2 BRC repeat 4 peptide, amino acids 1519-1551 (PTLLGFHTASGKKVKIAKESLDKVKNLFDEKEQ; not fully specified; left off: His6, end not stated, state not stated | MBP, end not stated, kept) [reference compound]
disruption of RAD51 L180E-ssDNA filaments [1]: underwent similar disruption
disruption of DMC1-ssDNA filaments (DMC1-ssDNA filaments): completely disrupted
disruption of RAD51-ssDNA filaments (RAD51-ssDNA filaments [2]): disrupted
protection of RAD51-ssDNA filaments from BRC4-mediated disruption (RAD51-ssDNA filaments [3]): partially disrupt filaments

B1: 100-nt random-sequence ssDNA (ssDNA)
DNA: AATTCTCATTTTACTTACCGGACGCTATTAGCAGTGGGTGAGCAAAAACAGGAAGGCAAAATGCCGCAAAAAAGGGAATAAGGGCGACACGGAAATGTTG
binding result (DMC1;BRCA2 Ex14): binds
binding result (DMC1;BRCA2 Ex14-Tr): binds
binding result (DMC1): binds
binding result (RAD51;BRCA2 Ex27): binds
